Test results taken from the NIST ThermoML archive (doi:10.1016/j.tca.2012.01.013).

Legend:
[1] = refractive index (Na D-line) (dimensionless); xn = mol fraction of the nth substance listed; settings: 101 kPa, Liquid, Standard Abbe refractometry
[2] = xn = mol fraction of the nth substance listed; settings: 101 kPa, Liquid, Vibrating tube method

COC(=O)CCCCC(=O)OC [dimethyl 1,6-hexanedioate] + CCC(C)O
Settings | mass density, [2] [kg/m3] | refractive index, [1]
288.15 K, x1 = 0.1 | 851.006 | 1.40371
288.15 K, x1 = 0.2001 | 886.929 | 1.40787
288.15 K, x1 = 0.3 | 918.373 | 1.41161
288.15 K, x1 = 0.4 | 946.216 | 1.41507
288.15 K, x1 = 0.5003 | 971.377 | 1.41815
288.15 K, x1 = 0.6 | 994.171 | 1.42105
288.15 K, x1 = 0.6999 | 1014.77 | 1.42368
288.15 K, x1 = 0.8005 | 1033.71 | 1.42612
288.15 K, x1 = 0.8999 | 1050.86 | 1.42837
288.15 K, x1 = 1 | 1066.79 | 1.4305
293.15 K, x1 = 0.1 | 846.719 | 1.40153
293.15 K, x1 = 0.2001 | 882.468 | 1.4057
293.15 K, x1 = 0.3 | 913.786 | 1.40945
293.15 K, x1 = 0.4 | 941.538 | 1.4129
293.15 K, x1 = 0.5003 | 966.636 | 1.41602
293.15 K, x1 = 0.6 | 989.387 | 1.41891
293.15 K, x1 = 0.6999 | 1009.96 | 1.42156
293.15 K, x1 = 0.8005 | 1028.88 | 1.42403
293.15 K, x1 = 0.8999 | 1046.01 | 1.42628
293.15 K, x1 = 1 | 1061.93 | 1.42842
298.15 K, x1 = 0.1 | 842.377 | 1.39933
298.15 K, x1 = 0.2001 | 877.96 | 1.40348
298.15 K, x1 = 0.3 | 909.164 | 1.40724
298.15 K, x1 = 0.4 | 936.838 | 1.41071
298.15 K, x1 = 0.5003 | 961.876 | 1.41385
298.15 K, x1 = 0.6 | 984.59 | 1.41676
298.15 K, x1 = 0.6999 | 1005.13 | 1.41943
298.15 K, x1 = 0.8005 | 1024.03 | 1.42191
298.15 K, x1 = 0.8999 | 1041.15 | 1.4242
298.15 K, x1 = 1 | 1057.06 | 1.42636
303.15 K, x1 = 0.1 | 837.975 | 1.39709
303.15 K, x1 = 0.2001 | 873.411 | 1.40124
303.15 K, x1 = 0.3 | 904.511 | 1.405
303.15 K, x1 = 0.4 | 932.113 | 1.40851
303.15 K, x1 = 0.5003 | 957.1 | 1.41165
303.15 K, x1 = 0.6 | 979.781 | 1.4146
303.15 K, x1 = 0.6999 | 1000.3 | 1.4173
303.15 K, x1 = 0.8005 | 1019.19 | 1.41981
303.15 K, x1 = 0.8999 | 1036.29 | 1.42211
303.15 K, x1 = 1 | 1052.18 | 1.42429
308.15 K, x1 = 0.1 | 833.506 | 1.39479
308.15 K, x1 = 0.2001 | 868.81 | 1.39899
308.15 K, x1 = 0.3 | 899.82 | 1.40278
308.15 K, x1 = 0.4 | 927.355 | 1.4063
308.15 K, x1 = 0.5003 | 952.301 | 1.40948
308.15 K, x1 = 0.6 | 974.955 | 1.41244
308.15 K, x1 = 0.6999 | 995.457 | 1.41515
308.15 K, x1 = 0.8005 | 1014.33 | 1.4177
308.15 K, x1 = 0.8999 | 1031.43 | 1.42004
308.15 K, x1 = 1 | 1047.31 | 1.42222
313.15 K, x1 = 0.1 | 828.965 | 1.39245
313.15 K, x1 = 0.2001 | 864.16 | 1.39669
313.15 K, x1 = 0.3 | 895.087 | 1.40049
313.15 K, x1 = 0.4 | 922.569 | 1.40404
313.15 K, x1 = 0.5003 | 947.474 | 1.40726
313.15 K, x1 = 0.6 | 970.109 | 1.41026
313.15 K, x1 = 0.6999 | 990.598 | 1.41301
313.15 K, x1 = 0.8005 | 1009.47 | 1.41557
313.15 K, x1 = 0.8999 | 1026.55 | 1.41795
313.15 K, x1 = 1 | 1042.43 | 1.42017
318.15 K, x1 = 0.1 | 824.35 | 1.39013
318.15 K, x1 = 0.2001 | 859.451 | 1.39438
318.15 K, x1 = 0.3 | 890.312 | 1.39825
318.15 K, x1 = 0.4 | 917.75 | 1.4018
318.15 K, x1 = 0.5003 | 942.626 | 1.40503
318.15 K, x1 = 0.6 | 965.245 | 1.40808
318.15 K, x1 = 0.6999 | 985.726 | 1.41088
318.15 K, x1 = 0.8005 | 1004.59 | 1.41348
318.15 K, x1 = 0.8999 | 1021.67 | 1.41588
318.15 K, x1 = 1 | 1037.54 | 1.41819
323.15 K, x1 = 0.1 | 819.659 | 1.38776
323.15 K, x1 = 0.2001 | 854.686 | 1.39207
323.15 K, x1 = 0.3 | 885.493 | 1.39597
323.15 K, x1 = 0.4 | 912.894 | 1.39955
323.15 K, x1 = 0.5003 | 937.752 | 1.40283
323.15 K, x1 = 0.6 | 960.363 | 1.40592
323.15 K, x1 = 0.6999 | 980.838 | 1.40875
323.15 K, x1 = 0.8005 | 999.701 | 1.41138
323.15 K, x1 = 0.8999 | 1016.78 | 1.41382
323.15 K, x1 = 1 | 1032.64 | 1.41614
